Results from PMC3523717 (Angewandte Chemie (International ed. in English), 2012).

Molecular target: T1, Aurora kinase A (AKA) (Homo sapiens, UniProt O14965)
T1 sequence (O14965 1-403): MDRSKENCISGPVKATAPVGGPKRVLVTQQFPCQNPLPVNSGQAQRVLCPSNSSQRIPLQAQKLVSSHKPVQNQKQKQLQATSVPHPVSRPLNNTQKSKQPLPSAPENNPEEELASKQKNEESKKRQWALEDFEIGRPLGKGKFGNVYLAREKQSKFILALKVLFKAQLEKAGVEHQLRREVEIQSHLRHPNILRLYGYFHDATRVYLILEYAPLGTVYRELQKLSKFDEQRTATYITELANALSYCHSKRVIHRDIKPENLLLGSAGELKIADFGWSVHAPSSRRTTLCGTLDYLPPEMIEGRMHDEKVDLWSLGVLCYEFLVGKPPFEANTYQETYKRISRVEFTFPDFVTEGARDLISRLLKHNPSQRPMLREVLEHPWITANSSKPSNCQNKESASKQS
Assay: kinase activity assay
Assay type: biochemical

IC50: 61.8 nM
Substance: MLN8054-TCO [compound 13]
